# Assay results: patent US20050085457A1, “Therapeutic quinolone compounds with 5-ht-antagonistic properties” (priority 2001, published 2005)
# System: not given
# Test: not given
# Conditions: not given
row,SMILES,melting point
1,"CN1CCN(c2cccc3c(=O)cc(C(=O)Nc4ccc(N5CCOCC5)cc4)oc23)CC1 [Example 1, 8-(4-methyl-1-piperazinyl)-N-[4-(4-morpholinyl)phenyl]-4-oxo-4H-chromene-2-carboxamide]",217 to 218 °C (dec.)
2,"CN1CCN(c2cccc3c(=O)cc(-c4nc5ccc(N6CCOCC6)cc5o4)oc23)CC1 [Example 21, 8-(4-Methyl-piperazin-1-yl)-2-(6-morpholin-4-yl-benzooxazol-2-yl)-chromen-4-one]",158.1 to 158.8 °C
3,"CN1CCN(c2cccc3c(=O)cc(C(=O)Nc4ccc(N5CCOCC5)cc4O)oc23)CC1 [Example 22, 8-(4-Methyl-piperazin-1-yl)-4-oxo-4H-chromene-2-carboxylic Acid (2-hydroxy-4-morpholin-4-yl-phenyl)-amide]",248.4 to 249.6 °C
4,"CN1CCN(c2cccc3c(=O)cc(C(=O)N(C)c4ccc(N5CCOCC5)cc4)oc23)CC1 [Example 25, 8-(4-Methylpiperazin-1-yl)-4-oxo-4H-chromene-2-carboxylic Acid methyl-(4-morpholin-4-yl-phenyl)amide]",245 to 246.8 °C
5,"COc1cc(N2CCN(C)CC2)c2oc(C(=O)Nc3ccc(N4CCOCC4)cc3)cc(=O)c2c1 [Example 31, 6-Methoxy-8-(4-methyl-piperazin-1-yl)-4-oxo-4H-chromene-2-carboxylic acid (4-morpholin-4-yl-phenyl)-amide]",234 to 236 °C
6,"COc1cc(N2CCN(C)CC2)c2oc(C(=O)Nc3ccc(N4CCN(C(=O)CCO)CC4)cc3)cc(=O)c2c1 [Example 68, 6-Methoxy-8-(4-methyl-piperazin-1-yl)-4-oxo-4H-chromene-2-carboxylic acid {4-[4-(3-hydroxy-propanoyl)-piperazin-1-yl]-phenyl}-amide]",195 to 197 °C

# Now from value to compound:
row,melting point,SMILES
1,215 to 216 °C,"CN1CCN(c2cccc3c2OC(C(=O)Nc2ccc(N4CCOCC4)cc2)CC3)CC1 (racemic) [Example 75, racemic-8-(4-Methyl-piperazin-1-yl)-chroman-2-carboxylic Acid (4-morpholin-4-yl-phenyl)-amide]"
2,215 to 216 °C,"CN1CCN(c2cccc3c2OC(C(=O)Nc2ccc(N4CCOCC4)cc2)CC3=O)CC1 (racemic) [Example 78, racemic-8-(4-methyl-piperazin-1-yl)-4-oxo-chroman-2-carboxylic Acid (4-morpholin-4-yl-phenyl)-amide]"
3,216 °C (dec.),"CN1CCN(c2cccc3c2OC(C(=O)Nc2ccc(N4CCOCC4)cc2)CC3=O)CC1 (single isomer, unassigned) [Example 79, 8-(4-Methyl-piperazin-1-yl)-4-oxo-chroman-2-carboxylic acid (4-morpholin-4-yl-phenyl)-amide (Faster Running Isomer)]"
4,215 °C (dec.),"CN1CCN(c2cccc3c2OC(C(=O)Nc2ccc(N4CCOCC4)cc2)CC3=O)CC1 (single isomer, unassigned) [Example 80, 8-(4-Methyl-piperazin-1-yl)-4-oxo-chroman-2-carboxylic Acid (4-morpholin-4-yl-phenyl)-amide (Slower Running Isomer)]"
5,206 to 207 °C,"CN1CCN(c2cccc3c2OC(C(=O)Nc2ccc(N4CCOCC4)cc2)CC3)CC1 (single isomer, unassigned; (+)) [Example 76, (+)-8-(4-Methyl-piperazin-1-yl)-chroman-2-carboxylic Acid (4-morpholin-4-yl-phenyl)-amide]"
6,205.5 to 207 °C,"CN1CCN(c2cccc3c2OC(C(=O)Nc2ccc(N4CCOCC4)cc2)CC3)CC1 (single isomer, unassigned; (-)) [Example 77, (−)-8-(4-Methyl-piperazin-1-yl)-chroman-2-carboxylic acid (4-morpholin-4-yl-phenyl)-amide]"
7,233 to 234 °C,"CCS(=O)(=O)N1CCN(c2ccc(NC(=O)c3cc(=O)c4cc(F)cc(N5CCN(C)CC5)c4o3)cc2)CC1 [Example 71, 6-Fluoro-8-(4-methyl-piperazin-1-yl)-4-oxo-4H-chromene-2-carboxylic Acid [4-(4-ethane sulfonyl-piperazin-1-yl)-phenyl]-amide]"
8,195 to 199 °C,"CN1CCN(c2cc(F)cc3c(=O)cc(C(=O)Nc4ccc(N5CCN(C(=O)CCO)CC5)cc4)oc23)CC1 [Example 73, 6-Fluoro-8-(4-methyl-piperazin-1-yl)-4-oxo-4H-chromene-2-carboxylic acid {4-[4-(3-hydroxy-propanoyl)-piperazin-1-yl]-phenyl}-amide]"
9,236 to 238 °C,"CCNC(=O)N1CCN(c2ccc(NC(=O)c3cc(=O)c4cc(F)cc(N5CCN(C)CC5)c4o3)cc2)CC1 [Example 81, 4-[4-({1-[6-Fluoro-8-(4-methyl-piperazin-1-yl)-4-oxo-4H-chromen-2-yl]-methanoyl}-amino)-phenyl]-piperazine-1-carboxylic Acid Ethylamide]"

# Molecular target: 5-HT1B and 5HT1D receptors
# Test: not given
# Conditions: guinea pig cortex membranes; "may result in a measurement of"; assay of Roberts et al.; read-out: Kd of the radioligand (saturation studies); cited from earlier work
row,SMILES,Kd
1,COc1ccc(NC(=O)c2ccc(-c3ccncc3)c(C)c2)cc1N1CCN(C)CC1 [[^3H]-GR125743],0.046 ± 0.004 nM

# System: Hartley guinea pigs
# Test: learned helplessness test in guinea pigs
# Type: in vivo
# Conditions: guinea pig
# Excerpt: The utility of the compounds for example to treat depression may be shown via a learned helplessness test in guinea pigs, which is used extensively as correlative to antidepressant activity in humans. The learned helplessness test may be carried out as follows: Seventy male Hartley guinea pigs, each weighing about 350-425 gm are fed ad lib, and are housed under a 12-hour light/dark cycle. The procedure consists of two phases: The induction phase and the avoidance-training phase. In the induction phase, subjects are placed into standard shuttle cages (20 L×16 W×21 centimeters H) which are fitted with a grid floor. Electrical stimulation (1.25 mA, 10 sec duration) is delivered to the floor of the cage every 90-sec during 1 hour daily sessions. Subjects have no opportunity to escape or to avoid shocks. Induction is conducted for 2 consecutive days.
# In avoidance training, testing is also conducted in the shuttle cages, except that the subjects are not returned to the same chamber in which induction had occurred. Additionally, all cages are fitted with a partition with an arch in the center of the cage, through which animals can pass between the left and right halves of the cage. The procedure employed is a standard shuttle avoidance procedure in which a compound, conditioned stimulus (a 10-sec presentation of a tone and turning on of a lamp on the side of the cage that the guinea pig was occupying) serves to indicate presentation of electrical current to the floor of the cage. Shock is presented for a 5 sec period, 5 sec after initiation of the conditioned stimulus. Entry into the opposite side of the shuttle cage via the arched partition prior to shock onset results in the end of the trial (avoidance response). If shock is delivered, entry into the opposite side of the cage results in termination of the shock and CS (escape). Reversal of learned helplessness in the induction subjects correlates to antidepressant activity of the test compound.
# Avoidance training, 45-min in duration, is conducted on 2 consecutive days, beginning 48 hr after the final induction session. Seventy subjects are assigned to 1 of 6 groups of 11-12 animals. The groups are as follows: • 1) No induction group. The subjects are placed into the shuttle cages but are not given inescapable shock, the animals are subsequently trained in the avoidance procedure and the vehicle is administered; • 2) Induction vehicle control group; • 3) Imipramine 17.8 mg/kg; • 4) 0.3 mg/kg compounds; • 5) 1 mg/kg compounds; and • 6) 5 mg/kg compounds.
# Groups 2-6 are given induction and avoidance training sessions. Injections are administered immediately following induction sessions and 1 hour prior to avoidance training sessions. […]
row,SMILES,activity in the learned helplessness assay for antidepressant/antianxiety activity
1,"COc1cc(N2CCN(C)CC2)c2oc(C(=O)Nc3ccc(N4CCOCC4)cc3)cc(=O)c2c1 [Example 31, 6-Methoxy-8-(4-methyl-piperazin-1-yl)-4-oxo-4H-chromene-2-carboxylic acid (4-morpholin-4-yl-phenyl)-amide]",demonstrate activity
2,"CCC(=O)N1CCN(c2ccc(NC(=O)c3cc(=O)c4cc(OC)cc(N5CCN(C)CC5)c4o3)cc2)CC1 [Example 44, 6-Methoxy-8-(4-methyl-piperazin-1-yl)-4-oxo-4H-chromene-2-carboxylic Acid [4-(4-propionyl-piperazin-1-yl)-phenyl]-amide]",demonstrate activity
3,"CCS(=O)(=O)N1CCN(c2ccc(NC(=O)c3cc(=O)c4cc(F)cc(N5CCN(C)CC5)c4o3)cc2)CC1 [Example 71, 6-Fluoro-8-(4-methyl-piperazin-1-yl)-4-oxo-4H-chromene-2-carboxylic Acid [4-(4-ethane sulfonyl-piperazin-1-yl)-phenyl]-amide]",demonstrate activity
4,"CCC(=O)N1CCN(c2ccc(NC(=O)c3cc(=O)c4cc(F)cc(N5CCN(C)CC5)c4o3)cc2)CC1 [Example 72, 6-Fluoro-8-(4-methyl-piperazin-1-yl)-4-oxo-4H-chromene-2-carboxylic acid [4-(4-propionyl-piperazin-1-yl)-phenyl]-amide]",demonstrate activity
